From publication PMC4638293 (The Journal of Veterinary Medical Science, 2015)
Marks after values point to notes of the source that are not given here.

Type: in vivo
Conditions: rat, PY 4 mg/kg oral; for Total amount in feces: 24 hr feces collection; for Total amount in cecum (tissue weight): whole cecum; for Total amount in colon (tissue weight): whole colon; for Total amount in duodenum (tissue weight): whole duodenum; for Total amount in ileum (tissue weight): whole ileum; for Total amount in jejunum (tissue weight): whole jejunum; for Total amount in kidney (tissue weight): whole kidney; for Total amount in liver (tissue weight): whole liver; for Total amount in stomach (tissue weight): whole stomach; for Total amount in testes (tissue weight): whole testes; for Total amount in brain (tissue weight): whole brain; for Total amount in heart (tissue weight): whole heart; for Total amount in lung (tissue weight): whole lung; for Total amount in spleen (tissue weight): whole spleen; for Total amount in tongue (tissue weight): whole tongue
[1] = 24 hr urine collection, mean ± SD, unit ppb printed
[2] = 24 hr, wet-g, mean ± SD, unit ppb printed
[3] = 24 hr, mean ± SD, unit ppb printed

Compound | Total amount in feces (mean ± SD) | Concentration in urine [1] | Concentration in cecum [2] | Concentration in colon [2] | Total amount in cecum (tissue weight) (24 hr, mean ± SD) | Total amount in colon (tissue weight) (24 hr, mean ± SD) | Total amount in duodenum (tissue weight) (24 hr, mean ± SD) | Total amount in ileum (tissue weight) (24 hr, mean ± SD) | Total amount in jejunum (tissue weight) (24 hr, mean ± SD) | Total amount in kidney (tissue weight) (24 hr, mean ± SD) | Total amount in liver (tissue weight) (24 hr, mean ± SD) | Total amount in stomach (tissue weight) (24 hr, mean ± SD) | Total amount in testes (tissue weight) (24 hr, mean ± SD) | Concentration in heart [2] | Concentration in ileum [2] | Concentration in jejunum [2] | Concentration in kidney [2] | Concentration in liver [2] | Total amount in heart (tissue weight) (24 hr, mean ± SD) | Total amount in lung (tissue weight) (24 hr, mean ± SD) | other results
Oc1ccc2ccc3cccc4ccc1c2c34 [PYOH, 1-hydroxypyrene] | (755.8 × 10^3 ± 700) ng | 546 ± 78^b ppb | 59.4 × 10^3 ± 800^a,b ppb | 13 × 10^3 ± 800^b ppb | (40.1 × 10^3 ± 100) ng | (11.4 × 10^3 ± 700) ng | (441 ± 29) ng | (4.1 × 10^3 ± 400) ng | (1.6 × 10^3 ± 200) ng | (135 ± 19) ng | (8.5 × 10^3 ± 100) ng | (871 ± 64) ng | (92 ± 37) ng |  |  |  |  |  |  |  | Share of PY excreted via feces as PYOH (24 hr feces): ~70%
O=C(O)[C@H]1O[C@@H](Oc2ccc3ccc4cccc5ccc2c3c45)[C@H](O)[C@@H](O)[C@@H]1O [PYOG, Pyrene-1-glucuronide] |  | 10.1 × 10^3 ± 400^c,d ppb | 1.4 × 10^3 ± 100^d ppb | 1.2 × 10^3 ± 300^d ppb | (950 ± 70) ng | (1.0 × 10^3 ± 200) ng |  | (58 × 10^3 ± 300) ng |  | (18 × 10^3 ± 880) ng | (70 × 10^3 ± 220) ng | (1.7 × 10^3 ± 100) ng | (1.1 × 10^3 ± 390) ng | 1.1 × 10^3 ± 200^d ppb | 170.1 × 10^3 ± 700^a ppb | 87.1 × 10^3 ± 400^b ppb | 20.6 × 10^3 ± 100^c,d ppb | 10.2 × 10^3 ± 300^c,d ppb | (860 ± 140) ng | (1.7 × 10^3 ± 640) ng | Share of PY excreted via urine as PYOG (24 hr urine): around 10%; Concentration in brain (24 hr, brain, wet-g, mean ± SD, unit ppb printed): 210 ± 60^d ppb; Concentration in duodenum (24 hr, duodenum, wet-g, mean ± SD, unit ppb printed): 65.9 × 10^3 ± 800^b,c ppb; Concentration in lung [2]: 2.4 × 10^3 ± 900^c,d ppb; Concentration in plasma [3]: 446.0 ± 30^d ppb; Concentration in spleen (24 hr, spleen, wet-g, mean ± SD, unit ppb printed): 790 ± 20^d ppb; Concentration in stomach [2]: 1.7 × 10^3 ± 10^d ppb; Concentration in testes [2]: 1.0 × 10^3 ± 360^d ppb; Concentration in tongue (24 hr, tongue, wet-g, mean ± SD, unit ppb printed): 1.4 × 10^3 ± 500^d ppb; Total amount in brain (tissue weight) (24 hr, mean ± SD): (310 ± 100) ng; Total amount in spleen (tissue weight) (24 hr, mean ± SD): (380 ± 120) ng; Total amount in tongue (tissue weight) (24 hr, mean ± SD): (420 ± 110) ng
O=S(=O)(O)Oc1ccc2ccc3cccc4ccc1c2c34 [PYOS, Pyrene-1-sulfate] |  | 13 ± 7^b ppb | 89 ± 58^a,b ppb | 54 ± 20^b ppb | (57 ± 35) ng | (47 ± 16) ng |  | (96 ± 10) ng | (48 ± 21) ng | (67 ± 33) ng | (650 ± 260) ng | (11 ± 1) ng | (12 ± 3) ng | 12 ± 4^b ppb | 261 ± 21^a ppb | 39 ± 17^b ppb | 76 ± 38^a,b ppb | 96 ± 38^a,b ppb | (9 ± 3) ng | (29 ± 9) ng | Concentration in lung [2]: 38 ± 13^b ppb; Concentration in plasma [3]: 2 ± 1^b ppb; Concentration in stomach [2]: 11 ± 1^b ppb; Concentration in testes [2]: 11 ± 3^b ppb
c1cc2ccc3cccc4ccc(c1)c2c34 [PY, Pyrene] | (380.9 ± 31.2) ng | 4.3 ± 0.0^d,e ppb |  |  | (33.0 ± 4.8) ng | (32.0 ± 7.7) ng | (19.4 ± 5.3) ng | (22.0 ± 1.7) ng | (34.5 ± 14.8) ng | (12.1 ± 2.0) ng | (124.5 ± 20.4) ng | (22.4 ± 4.1) ng | (13.3 ± 3.7) ng |  |  |  |  |  | (12.7 ± 1.5) ng | (10.7 ± 0.2) ng | Total amount in urine (24 hr urine collection, mean ± SD): (40.7 ± 9.6) ng; Total amount in brain (tissue weight) (24 hr, mean ± SD): (17.5 ± 1.5) ng; Total amount in spleen (tissue weight) (24 hr, mean ± SD): (12.4 ± 0.8) ng; Total amount in tongue (tissue weight) (24 hr, mean ± SD): (11.4 ± 0.4) ng
